Assay results as given in PubChem BioAssay (NCI).
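How tested: cells in 96-well plates exposed to compound for 48 hours at five concentrations. TGI: total growth inhibition.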

Key:
Assay in all cases: NCI tumour cell line growth inhibition, 48 h
[1] = system: SW-620 colon
[2] = system: NCI-H23 lung
[3] = system: RXF 393 renal
[4] = system: IGROV1 ovarian
[5] = system: U251 CNS
[6] = system: M14 melanoma
[7] = system: OVCAR-5 ovarian
[8] = system: MDA-MB-435
[9] = system: COLO 205 colon
[10] = system: ACHN renal
[11] = system: UO-31 renal
[12] = system: SN12C renal
[13] = system: A498 renal
[14] = system: OVCAR-8 ovarian
[15] = system: SK-MEL-5 melanoma
[16] = system: SF-268 CNS
[17] = system: SF-539 CNS
[18] = system: MDA-N
[19] = system: SK-MEL-28 melanoma
[20] = system: UACC-62 melanoma
[21] = system: HCT-116 colon
[22] = system: OVCAR-3 ovarian
[23] = system: RPMI-8226 leukemia
[24] = system: NCI-H226 lung
[25] = system: HT29 colon
[26] = system: HOP-62 NSCLC
[27] = system: UACC-257 melanoma
[28] = system: MCF7 breast
[29] = system: SNB-19 CNS
[30] = system: SF-295 CNS
[31] = system: SNB-75 CNS
[32] = system: T-47D breast
[33] = system: MDA-MB-231 breast
[34] = system: NCI/ADR-RES ovarian
[35] = system: DU-145 prostate
[36] = system: A549 NSCLC
[37] = system: OVCAR-4 ovarian
[38] = system: SK-OV-3 ovarian
[39] = system: EKVX NSCLC
[40] = system: HS 578T breast
[41] = system: MOLT-4 leukemia
[42] = system: HCT-15 colon
[43] = system: HCC-2998 colon
[44] = system: KM12 colon
[45] = system: NCI-H460 lung
[46] = system: TK-10 renal
[47] = system: SK-MEL-2 melanoma
[48] = system: 786-0 renal
[49] = system: BT-549 breast
[50] = system: PC-3 prostate
[51] = system: CAKI-1 renal
[52] = system: CCRF-CEM leukemia
[53] = system: NCI-H522 lung
[54] = system: HL-60(TB) leukemia
[55] = system: LOX IMVI melanoma
[56] = system: HOP-92 NSCLC
[57] = system: K-562 leukemia
[58] = system: MALME-3M melanoma
[59] = system: SR leukemia

## Cc1ccc(S(=O)(=O)N2CCCSCCSCCCN(S(=O)(=O)c3ccc(C)cc3)CC2)cc1
[1]
  TGI: > 100 µM
[2]
  TGI: > 100 µM
[3]
  TGI: > 100 µM
[4]
  TGI: > 100 µM
[5]
  TGI: > 100 µM
[6]
  TGI: > 100 µM
[7]
  TGI: > 100 µM
[8]
  TGI: > 100 µM
[9]
  TGI: > 100 µM
[10]
  TGI: > 100 µM
[11]
  TGI: > 100 µM
[12]
  TGI: > 100 µM
[13]
  TGI: > 100 µM
[14]
  TGI: > 100 µM
[15]
  TGI: > 100 µM
[16]
  TGI: > 100 µM
[17]
  TGI: > 100 µM
[18]
  TGI: > 100 µM
[19]
  TGI: > 100 µM
[20]
  TGI: > 100 µM
[21]
  TGI: > 100 µM
[22]
  TGI: > 100 µM
[23]
  TGI: > 100 µM
[24]
  TGI: > 100 µM
[25]
  TGI: > 100 µM
[26]
  TGI: > 100 µM
[27]
  TGI: > 100 µM
[28]
  TGI: > 100 µM
[29]
  TGI: > 100 µM
[30]
  TGI: > 100 µM
[31]
  TGI: > 100 µM
[32]
  TGI: > 100 µM
[33]
  TGI: > 100 µM
[34]
  TGI: > 100 µM
[35]
  TGI: > 100 µM
[36]
  TGI: > 100 µM
[37]
  TGI: > 100 µM
[38]
  TGI: > 100 µM
[39]
  TGI: > 100 µM
[40]
  TGI: > 100 µM
[41]
  TGI: > 100 µM
[42]
  TGI: > 100 µM
[43]
  TGI: > 100 µM
[44]
  TGI: > 100 µM
[45]
  TGI: > 100 µM
[46]
  TGI: > 100 µM
[47]
  TGI: > 100 µM
[48]
  TGI: > 100 µM
[49]
  TGI: > 100 µM

## C=C1CCCC(C)(C)[C@H]1C/C=C1\CCOC1=O
[1]
  TGI: 35.2 µM
[2]
  TGI: 39 µM
[50]
  TGI: 31.5 µM
[4]
  TGI: 28.8 µM
[5]
  TGI: 30.4 µM
[6]
  TGI: 34 µM
[8]
  TGI: 22 µM
[9]
  TGI: 33.4 µM
[10]
  TGI: 29.4 µM
[11]
  TGI: 29.6 µM
[51]
  TGI: 30.2 µM
[12]
  TGI: 35.2 µM
[13]
  TGI: 31 µM
[14]
  TGI: 38.5 µM
[15]
  TGI: 21.8 µM
[16]
  TGI: 23.9 µM
[17]
  TGI: 34.5 µM
[18]
  TGI: 33.3 µM
[52]
  TGI: > 100 µM
[53]
  TGI: 40.4 µM
[19]
  TGI: 29.6 µM
[20]
  TGI: > 100 µM
[21]
  TGI: 25.8 µM
[22]
  TGI: 34.8 µM
[54]
  TGI: 43.8 µM
[23]
  TGI: > 100 µM
[24]
  TGI: 24.9 µM
[25]
  TGI: 28 µM
[26]
  TGI: 39.9 µM
[27]
  TGI: 24.5 µM
[28]
  TGI: 25.4 µM
[29]
  TGI: 30.7 µM
[30]
  TGI: 30.8 µM
[55]
  TGI: 23.6 µM
[32]
  TGI: > 100 µM
[33]
  TGI: 31.6 µM
[34]
  TGI: 26.8 µM
[35]
  TGI: 26.2 µM
[56]
  TGI: 26.6 µM
[36]
  TGI: 26.6 µM
[37]
  TGI: 26.8 µM
[38]
  TGI: 57 µM
[39]
  TGI: 30 µM
[40]
  TGI: 44.3 µM
[41]
  TGI: 38.9 µM
[42]
  TGI: > 100 µM
[43]
  TGI: > 100 µM
[57]
  TGI: 26.5 µM
[44]
  TGI: 31.8 µM
[45]
  TGI: 24.4 µM
[58]
  TGI: 26.9 µM
[46]
  TGI: 34.5 µM
[59]
  TGI: > 100 µM
[47]
  TGI: > 100 µM
[48]
  TGI: 28.7 µM
[49]
  TGI: 26.9 µM

## COc1cc2oc(=O)cc(C)c2c(OC)c1O
[1]
  TGI: > 100 µM
[2]
  TGI: > 100 µM
[50]
  TGI: > 100 µM
[4]
  TGI: > 100 µM
[5]
  TGI: > 100 µM
[6]
  TGI: > 100 µM
[7]
  TGI: > 100 µM
[8]
  TGI: > 100 µM
[9]
  TGI: > 100 µM
[10]
  TGI: > 100 µM
[11]
  TGI: > 100 µM
[12]
  TGI: > 100 µM
[13]
  TGI: 94.8 µM
[14]
  TGI: > 100 µM
[15]
  TGI: > 100 µM
[16]
  TGI: > 100 µM
[17]
  TGI: > 100 µM
[18]
  TGI: > 100 µM
[52]
  TGI: > 100 µM
[19]
  TGI: > 100 µM
[20]
  TGI: > 100 µM
[21]
  TGI: > 100 µM
[22]
  TGI: > 100 µM
[23]
  TGI: > 100 µM
[24]
  TGI: > 100 µM
[25]
  TGI: > 100 µM
[26]
  TGI: > 100 µM
[27]
  TGI: > 100 µM
[28]
  TGI: > 100 µM
[29]
  TGI: > 100 µM
[30]
  TGI: > 100 µM
[31]
  TGI: > 100 µM
[55]
  TGI: > 100 µM
[33]
  TGI: > 100 µM
[34]
  TGI: > 100 µM
[35]
  TGI: > 100 µM
[36]
  TGI: > 100 µM
[37]
  TGI: > 100 µM
[38]
  TGI: > 100 µM
[39]
  TGI: > 100 µM
[40]
  TGI: 65 µM
[41]
  TGI: > 100 µM
[42]
  TGI: > 100 µM
[57]
  TGI: > 100 µM
[44]
  TGI: > 100 µM
[58]
  TGI: > 100 µM
[46]
  TGI: > 100 µM
[59]
  TGI: > 100 µM
[47]
  TGI: > 100 µM
[48]
  TGI: > 100 µM

## COC(=O)[C@H](Cc1ccccc1)NC(=O)N(CCC#N)CCCCN(CCC#N)C(=O)N[C@@H](Cc1ccccc1)C(=O)OC
[1]
  TGI: > 100 µM
[2]
  TGI: > 100 µM
[50]
  TGI: > 100 µM
[3]
  TGI: > 100 µM
[5]
  TGI: > 100 µM
[6]
  TGI: > 100 µM
[7]
  TGI: > 100 µM
[8]
  TGI: > 100 µM
[9]
  TGI: > 100 µM
[10]
  TGI: > 100 µM
[11]
  TGI: > 100 µM
[51]
  TGI: > 100 µM
[12]
  TGI: > 100 µM
[13]
  TGI: > 100 µM
[14]
  TGI: > 100 µM
[15]
  TGI: > 100 µM
[16]
  TGI: > 100 µM
[18]
  TGI: > 100 µM
[53]
  TGI: > 100 µM
[19]
  TGI: > 100 µM
[20]
  TGI: > 100 µM
[21]
  TGI: > 100 µM
[22]
  TGI: > 100 µM
[23]
  TGI: > 100 µM
[24]
  TGI: > 100 µM
[26]
  TGI: > 100 µM
[27]
  TGI: > 100 µM
[28]
  TGI: > 100 µM
[29]
  TGI: > 100 µM
[30]
  TGI: > 100 µM
[31]
  TGI: > 79.1 µM
[55]
  TGI: > 100 µM
[32]
  TGI: > 100 µM
[33]
  TGI: > 100 µM
[34]
  TGI: > 100 µM
[35]
  TGI: > 100 µM
[56]
  TGI: > 100 µM
[36]
  TGI: > 100 µM
[37]
  TGI: > 100 µM
[38]
  TGI: > 100 µM
[39]
  TGI: > 100 µM
[40]
  TGI: > 100 µM
[41]
  TGI: > 100 µM
[42]
  TGI: > 100 µM
[43]
  TGI: > 100 µM
[57]
  TGI: > 100 µM
[44]
  TGI: > 100 µM
[45]
  TGI: > 100 µM
[58]
  TGI: > 100 µM
[46]
  TGI: > 100 µM
[47]
  TGI: > 100 µM
[48]
  TGI: > 100 µM
[49]
  TGI: > 100 µM
